Our source for the relative viability values is the supplement of paper PMC10307832.

Holding throughout (experiment): relative viability (nuclei count vs DMSO), 5 days (fraction); higher = more cells survive
Compound in assay [1]: C[C@]1(O)C[C@@H](c2nc(-c3ccc4ccc(-c5ccccc5)nc4c3)c3c(N)nccn32)C1 [Linsitinib] + O=C(CCCCCCC(=O)Nc1ccccc1)NO [Vorinostat] (partner 1 µM)
The procedure, abridged:
(§1)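 Relative viability divides the nuclei count in treated wells by that in vehicle wells. Lung cancer cell lines were seeded in 1536-well plates, dosed by pin tool the next day, and fixed and stained after 5 days in one step with final 0.05% Triton X-100, 1% formaldehyde and 1 ug/ml Hoechst. Dosing was a single drug or a fixed anchor-drug dose plus five library-drug doses (not always all listed) in √10 steps, and values are medians of duplicate plates imaged at 4×.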

Compound in assay [2]: C[C@]1(O)C[C@@H](c2nc(-c3ccc4ccc(-c5ccccc5)nc4c3)c3c(N)nccn32)C1 [Linsitinib] + COc1cc2c(Oc3ccc(NC(=O)C4(C(=O)Nc5ccc(F)cc5)CC4)cc3F)ccnc2cc1OCCCN1CCOCC1 [Foretinib] (partner 0.25 µM)
The procedure, abridged: as §1

Compound in assay [3]: Cc1ccc(C(=O)N(CCCN)[C@@H](c2nc3cc(Cl)ccc3c(=O)n2Cc2ccccc2)C(C)C)cc1 [Ispinesib] + C[C@@H](Oc1cc(-c2cnn(C3CCNCC3)c2)cnc1N)c1c(Cl)ccc(F)c1Cl [Crizotinib] (partner 1 µM)
In outline: as §1

Compound in assay [4]: Cc1ccc(C(=O)N(CCCN)[C@@H](c2nc3cc(Cl)ccc3c(=O)n2Cc2ccccc2)C(C)C)cc1 [Ispinesib] + CS(=O)(=O)N1CCN(Cc2cc3nc(-c4cccc5[nH]ncc45)nc(N4CCOCC4)c3s2)CC1 [Pictilisib] (partner 1 µM)
In outline: as §1

As for BEN, the relative viability in assay [1] (first compound 0.01 µM) turned out to be 0.513; in assay [1] (first compound 0.03162 µM), 0.573; in assay [1] (first compound 0.1 µM), 0.534; in assay [1] (first compound 0.3162 µM), 0.434; in assay [1] (first compound 1 µM), 0.474; in assay [2] (first compound 0.01 µM) it was 0.635. The relative viability in assay [2] (first compound 0.03162 µM) came out at 0.578; in assay [2] (first compound 0.1 µM), 0.642; in assay [2] (first compound 1 µM), 0.753; in assay [3] (first compound 0.001 µM), 1.08; in assay [3] (first compound 0.003162 µM), 1.01; in assay [3] (first compound 0.01 µM), 1.04. Besides, the relative viability in assay [3] (first compound 0.03162 µM) came out at 0.507; in assay [3] (first compound 0.1 µM) it was 0.431; in assay [4] (first compound 0.001 µM), 0.581; in assay [4] (first compound 0.003162 µM), 0.675; in assay [4] (first compound 0.01 µM), 0.542; in assay [4] (first compound 0.03162 µM), 0.421. For the same cell line, the relative viability in assay [4] (first compound 0.1 µM) worked out at 0.222.

As for NCI-H3122, the relative viability was 0.966 in assay [1] (first compound 0.01 µM); 0.921 in assay [1] (first compound 0.03162 µM); 0.98 in assay [1] (first compound 0.1 µM); 0.702 in assay [1] (first compound 1 µM); 0.913 in assay [2] (first compound 0.01 µM); 0.945 in assay [2] (first compound 0.03162 µM). Further, the relative viability is 0.978 in assay [2] (first compound 0.1 µM); 0.874 in assay [2] (first compound 0.3162 µM); 0.907 in assay [2] (first compound 1 µM); 0.28 in assay [3] (first compound 0.001 µM); 0.27 in assay [3] (first compound 0.003162 µM); 0.274 in assay [3] (first compound 0.01 µM). For the same cell line, the relative viability was found to be 0.314 in assay [3] (first compound 0.03162 µM); 0.202 in assay [3] (first compound 0.1 µM); 0.601 in assay [4] (first compound 0.001 µM); 0.838 in assay [4] (first compound 0.003162 µM); 0.635 in assay [4] (first compound 0.01 µM); 0.569 in assay [4] (first compound 0.03162 µM). For the same cell line, in assay [4] (first compound 0.1 µM), the relative viability is 0.162.

In the case of LCLC-97TM1, the relative viability in assay [1] (first compound 0.01 µM) was determined as 0.756; in assay [1] (first compound 0.03162 µM) it was 0.711; in assay [1] (first compound 0.1 µM), 0.674; in assay [1] (first compound 0.3162 µM) it was 0.103; in assay [1] (first compound 1 µM), 0.191; in assay [2] (first compound 0.01 µM), 0.971. Moreover, the relative viability came to 0.95 in assay [2] (first compound 0.03162 µM); 0.879 in assay [2] (first compound 0.1 µM); 0.832 in assay [2] (first compound 0.3162 µM); 0.823 in assay [2] (first compound 1 µM); 0.291 in assay [3] (first compound 0.001 µM); 0.381 in assay [3] (first compound 0.003162 µM). In addition, the relative viability in assay [3] (first compound 0.01 µM) is 0.508; in assay [3] (first compound 0.03162 µM) it was 0.236; in assay [3] (first compound 0.1 µM) it was 0.175; in assay [4] (first compound 0.001 µM), 0.251; in assay [4] (first compound 0.003162 µM), 0.187; in assay [4] (first compound 0.01 µM) it was 0.192. For the same cell line, the relative viability in assay [4] (first compound 0.03162 µM) was determined as 0.111; in assay [4] (first compound 0.1 µM), 0.126.

For NCI-H2228, the relative viability in assay [1] (first compound 0.01 µM) stood at 0.593; in assay [1] (first compound 0.03162 µM), 0.409; in assay [1] (first compound 0.1 µM), 0.664; in assay [1] (first compound 0.3162 µM), 0.465; in assay [1] (first compound 1 µM) it was 0.476; in assay [2] (first compound 0.01 µM) it was 0.86. Also, the relative viability is 0.845 in assay [2] (first compound 0.03162 µM); 0.735 in assay [2] (first compound 0.1 µM); 0.746 in assay [2] (first compound 0.3162 µM); 0.619 in assay [2] (first compound 1 µM); 0.511 in assay [3] (first compound 0.001 µM); 0.4 in assay [3] (first compound 0.003162 µM). Besides, the relative viability in assay [3] (first compound 0.01 µM) was 0.539; in assay [3] (first compound 0.03162 µM), 0.374; in assay [3] (first compound 0.1 µM), 0.207; in assay [4] (first compound 0.001 µM) it was 0.483; in assay [4] (first compound 0.003162 µM), 0.554; in assay [4] (first compound 0.01 µM), 0.469. Moreover, the relative viability in assay [4] (first compound 0.03162 µM) was 0.319; in assay [4] (first compound 0.1 µM), 0.264.

For COR-L23, the relative viability stood at 0.431 in assay [1] (first compound 0.01 µM); 0.267 in assay [1] (first compound 0.03162 µM); 0.402 in assay [1] (first compound 0.1 µM); 0.357 in assay [1] (first compound 0.3162 µM); 0.302 in assay [1] (first compound 1 µM); 0.892 in assay [2] (first compound 0.01 µM). In addition, the relative viability was found to be 0.996 in assay [2] (first compound 0.03162 µM); 0.905 in assay [2] (first compound 0.1 µM); 0.834 in assay [2] (first compound 0.3162 µM); 0.861 in assay [2] (first compound 1 µM); 0.68 in assay [3] (first compound 0.001 µM); 0.729 in assay [3] (first compound 0.003162 µM). For the same cell line, the relative viability in assay [3] (first compound 0.01 µM) worked out at 0.882; in assay [3] (first compound 0.03162 µM), 0.311; in assay [3] (first compound 0.1 µM), 0.248; in assay [4] (first compound 0.001 µM), 0.895; in assay [4] (first compound 0.003162 µM), 0.863; in assay [4] (first compound 0.01 µM), 0.908. Also, the relative viability was 0.181 in assay [4] (first compound 0.03162 µM) and 0.235 in assay [4] (first compound 0.1 µM).

As for EMC-BAC-2, the relative viability in assay [1] (first compound 0.01 µM) came to 0.44; in assay [1] (first compound 0.03162 µM) it was 0.441; in assay [1] (first compound 0.1 µM) it was 0.426; in assay [1] (first compound 0.3162 µM), 0.398; in assay [1] (first compound 1 µM), 0.214; in assay [2] (first compound 0.01 µM), 0.95. For the same cell line, the relative viability in assay [2] (first compound 0.03162 µM) amounted to 0.979; in assay [2] (first compound 0.1 µM) it was 1.1; in assay [2] (first compound 0.3162 µM), 0.907; in assay [2] (first compound 1 µM) it was 0.819; in assay [3] (first compound 0.001 µM), 0.914; in assay [3] (first compound 0.003162 µM), 0.847. Also, the relative viability in assay [3] (first compound 0.01 µM) came to 0.756; in assay [3] (first compound 0.03162 µM), 0.751; in assay [3] (first compound 0.1 µM), 0.481; in assay [4] (first compound 0.001 µM), 0.553; in assay [4] (first compound 0.003162 µM), 0.568; in assay [4] (first compound 0.01 µM) it was 0.539. Moreover, the relative viability in assay [4] (first compound 0.03162 µM) came to 0.413; in assay [4] (first compound 0.1 µM), 0.239.

With NCI-H1944, the relative viability in assay [1] (first compound 0.01 µM) was 0.508; in assay [1] (first compound 0.03162 µM), 0.674; in assay [1] (first compound 0.1 µM), 0.537; in assay [1] (first compound 0.3162 µM) it was 0.45; in assay [1] (first compound 1 µM), 0.317; in assay [2] (first compound 0.01 µM) it was 0.921. The relative viability in assay [2] (first compound 0.03162 µM) is 1.02; in assay [2] (first compound 0.1 µM), 0.821; in assay [2] (first compound 0.3162 µM) it was 0.674; in assay [2] (first compound 1 µM), 0.674; in assay [3] (first compound 0.001 µM), 1.2; in assay [3] (first compound 0.003162 µM), 1.16. Besides, the relative viability in assay [3] (first compound 0.01 µM) amounted to 1.18; in assay [3] (first compound 0.03162 µM), 0.697; in assay [3] (first compound 0.1 µM), 0.573; in assay [4] (first compound 0.001 µM), 0.402; in assay [4] (first compound 0.003162 µM), 0.398; in assay [4] (first compound 0.01 µM), 0.341. For the same cell line, the relative viability in assay [4] (first compound 0.03162 µM) was 0.288; in assay [4] (first compound 0.1 µM) it was 0.219.
